The values below come from ChEMBL document CHEMBL1201862, “PubChem BioAssay data set” (2004).

Some test systems named below: UO-31; NCI-H226; HCC 2998; PC-3; SK-MEL-2; 786-0; UACC-257; OVCAR-5; SNB-19; SNB-75; MOLT-4; SK-OV-3; MCF7; M14; HCT-15; T47D; Hs-578T; IGROV-1.
Holding throughout (experiment): NCI anticancer screen, dose series, 48 h

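Where inhibition never reached the appropriate level, the endpoint shown equals the highest concentration tested. Otherwise, values were interpolated linearly from a five-concentration, 48-hour dose response in 96-well plates. GI50: concentration for 50% inhibition of growth.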 The source made the active and inactive calls. Cut-off read from the data, not from the text of the source: active = GI50 up to about 1.1 µM and inactive = higher.

With `Nc1cccc(/C=C/CN2CCN(CCOC(c3ccccc3)c3ccccc3)CC2)c1`, the GI50 in the test with UO-31 is 13.6 µM (inactive); with NCI-H226, 21.2 µM (inactive); in the test with HCC 2998, 3.52 µM (inactive); with PC-3 it was 14.8 µM (inactive); in the test with SK-MEL-2, 17.7 µM (inactive); in the test with 786-0 it was 14.8 µM (inactive). Also, the GI50 in the test on UACC-257 is 15.9 µM (inactive); in the test on OVCAR-5, 16 µM (inactive); with SNB-19, 15.7 µM (inactive); with SNB-75, 10.5 µM (inactive); with MOLT-4, 3.54 µM (inactive); in the test on SK-OV-3, 14.1 µM (inactive). Further, the GI50 with MCF7 was 13.8 µM (inactive); with M14, 12.8 µM (inactive); in the test on HCT-15, 12.8 µM; in the test on T47D, 8 µM (inactive); in the test on Hs-578T it was 21.8 µM (inactive); in the test with IGROV-1 it was 16.3 µM (inactive).

For `Nc1nc(Cl)c(N)c(NCC2(CO)CC(O)C2)n1` (stereo not drawn), the GI50 was > 100 µM (inactive) in the test on UO-31; > 100 µM (inactive) with NCI-H226; 46.3 µM (inactive) in the test on HCC 2998; > 100 µM (inactive) in the test on PC-3; > 100 µM (inactive) in the test with SK-MEL-2; > 100 µM (inactive) in the test with 786-0. The GI50 in the test with UACC-257, in the test on OVCAR-5, with SNB-19, in the test with SNB-75, in the test with MOLT-4 and in the test with SK-OV-3 was > 100 µM (inactive) throughout. The GI50 was > 100 µM (inactive) in the test with MCF7; > 100 µM (inactive) in the test with M14; above 100 µM in the test with HCT-15; > 100 µM (inactive) with T47D; > 100 µM (inactive) in the test on Hs-578T; > 100 µM (inactive) in the test on IGROV-1.

In the case of `O=c1c2ncn(C3CCCCO3)c2n(-c2ccccc2)c(=S)n1-c1ccccc1` (stereo not drawn), the GI50 with UO-31 was 35.1 µM (inactive); in the test on NCI-H226, 25.9 µM (inactive); in the test on HCC 2998, > 70 µM (inactive); in the test with PC-3 it was 80.4 µM (inactive); with SK-MEL-2, 39.2 µM (inactive); with 786-0, 16.4 µM (inactive). The GI50 is 61.9 µM (inactive) in the test with UACC-257; > 61.1 µM (inactive) in the test on OVCAR-5; 21.5 µM (inactive) in the test with SNB-19; 7.69 µM (inactive) with SNB-75; > 100 µM (inactive) with MOLT-4; 20.7 µM (inactive) in the test with SK-OV-3. Besides, the GI50 is 49.5 µM (inactive) in the test with MCF7; > 92.5 µM (inactive) in the test on M14; 55.3 µM in the test with HCT-15; 2.31 µM (inactive) in the test on T47D; 10.1 µM (inactive) in the test with Hs-578T; 28.6 µM (inactive) with IGROV-1.

As for `Cc1ccc(S[C@@H](C)[C@@](O)(C(N)=O)c2ccccc2)cc1`, the GI50 is 15.2 µM (inactive) with UO-31; 64.4 µM (inactive) in the test with NCI-H226; > 100 µM (inactive) with HCC 2998; 35.4 µM (inactive) in the test on PC-3; 39.4 µM (inactive) with SK-MEL-2; 72.6 µM (inactive) in the test on 786-0. Further, the GI50 in the test on UACC-257 was 13 µM (inactive); with OVCAR-5, > 100 µM (inactive); with SNB-19 it was > 100 µM (inactive); in the test on SNB-75, > 100 µM (inactive); in the test with MOLT-4, 12.4 µM (inactive); in the test with SK-OV-3, > 100 µM (inactive). The GI50 with MCF7 is 44.8 µM (inactive); with M14, > 100 µM (inactive); in the test on HCT-15, 84.3 µM; in the test with T47D it was 26.7 µM (inactive); with Hs-578T, > 100 µM (inactive); in the test on IGROV-1 it was 3.74 µM (inactive).

Turning to `COC(=O)/C=C\C(C#N)(C#N)/N=C/c1ccc(C)s1`, the GI50 in the test on UO-31 was 1.67 µM (inactive); with NCI-H226, 16.7 µM (inactive); in the test on HCC 2998 it was 17.7 µM (inactive); with PC-3 it was 2.63 µM (inactive); in the test on SK-MEL-2 it was 5.48 µM (inactive); in the test with 786-0, 1.69 µM (inactive). In addition, the GI50 in the test with UACC-257 was 2.73 µM (inactive); in the test on OVCAR-5, 6.53 µM (inactive); in the test with SNB-19, 18.7 µM (inactive); in the test with SNB-75, 3.12 µM (inactive); in the test with MOLT-4, 0.955 µM (active); with SK-OV-3 it was 15 µM (inactive). The GI50 in the test with MCF7 was 1.49 µM (inactive); in the test on M14, 1.85 µM (inactive); in the test with HCT-15 it was 1.67 µM; in the test on T47D, 1.58 µM (inactive); in the test on Hs-578T, 21.8 µM (inactive); in the test with IGROV-1, 2 µM (inactive).

On to `Cc1cc2c(c(O)c1-c1c(C)cc(O)c3c1C(=O)C=CC3=O)C(=O)C=CC2=O`, for which the GI50 in the test with UO-31 is 1.63 µM (inactive); in the test with NCI-H226, 20.2 µM (inactive); with HCC 2998 it was 3.13 µM (inactive); in the test on PC-3 it was 4.02 µM (inactive); in the test with SK-MEL-2, 10 µM (inactive); in the test on 786-0, 1.16 µM (inactive). Moreover, the GI50 in the test with UACC-257 is 1.62 µM (inactive); in the test with OVCAR-5, 2.62 µM (inactive); in the test with SNB-19, 18 µM (inactive); with SNB-75 it was 5.5 µM (inactive); in the test on MOLT-4, 0.0224 µM (active); in the test on SK-OV-3 it was 15.6 µM (inactive). The GI50 in the test with MCF7 was 0.966 µM (active); in the test on M14, 2.18 µM (inactive); in the test on HCT-15, 1.52 µM; in the test with T47D, 1.34 µM (inactive); in the test with Hs-578T it was 3.07 µM (inactive); with IGROV-1, 2.26 µM (inactive).

For `COC(=O)c1ccccc1CC1Cc2ccc3c(c2C1)CCC3` (stereo not drawn), the GI50 in the test with UO-31 was 37 µM (inactive); in the test on NCI-H226 it was 35.1 µM (inactive); with HCC 2998 it was 23.8 µM (inactive); in the test with PC-3 it was 29.2 µM (inactive); in the test with SK-MEL-2, 15.6 µM (inactive); in the test on 786-0, 33.3 µM (inactive). Also, the GI50 is 10.4 µM (inactive) in the test on UACC-257; 29.5 µM (inactive) in the test on OVCAR-5; 48.6 µM (inactive) in the test on SNB-19; 25.8 µM (inactive) in the test on SNB-75; 21.6 µM (inactive) with MOLT-4; 32.7 µM (inactive) in the test on SK-OV-3. For the same compound, the GI50 was 14.3 µM (inactive) with MCF7; 33.9 µM (inactive) in the test on M14; 20.4 µM in the test on HCT-15; 22.9 µM (inactive) with T47D; 37 µM (inactive) in the test with Hs-578T; 35.4 µM (inactive) in the test with IGROV-1.

Regarding `CCCC(CC)c1cc(O)c(O)cc1C(CC)CCC` (stereo not drawn), the GI50 with UO-31, in the test on NCI-H226, with HCC 2998, in the test with PC-3, with SK-MEL-2 and in the test with 786-0 was > 10 µM (inactive) in each case. Besides, the GI50 in the test on UACC-257, in the test on OVCAR-5, with SNB-19, in the test with SNB-75, in the test with MOLT-4 and in the test with SK-OV-3 was > 10 µM (inactive) in each case. Also, the GI50 in the test with MCF7 was > 10 µM (inactive); in the test on M14 it was > 10 µM (inactive); in the test on HCT-15, above 10 µM; in the test with T47D, > 10 µM (inactive); in the test on Hs-578T, > 10 µM (inactive); in the test with IGROV-1 it was > 10 µM (inactive).

Consider `CCOC(=O)c1cc(C2=CCNC2=O)c(-c2cc(C)no2)[nH]1`, for which the GI50 with UO-31 is 27.7 µM (inactive); in the test with NCI-H226, > 100 µM (inactive); with HCC 2998 it was > 100 µM (inactive); in the test with PC-3, 55.6 µM (inactive); in the test with SK-MEL-2, > 100 µM (inactive); with 786-0, 40 µM (inactive). Moreover, the GI50 in the test on UACC-257 was > 100 µM (inactive); in the test with OVCAR-5 it was > 100 µM (inactive); with SNB-19, > 100 µM (inactive); with SNB-75, 34 µM (inactive); in the test with MOLT-4, 25.1 µM (inactive); in the test on SK-OV-3 it was 31.3 µM (inactive). Also, the GI50 in the test with MCF7 is 70 µM (inactive); in the test on M14, 51.1 µM (inactive); with HCT-15, 92.9 µM; with T47D, 30.8 µM (inactive); in the test on Hs-578T it was 95.5 µM (inactive); in the test on IGROV-1 it was 75.3 µM (inactive).

For the compound `COC1=C2CC(C)CC(OC)[C@@H](OC(=O)CCN)[C@H](C)/C=C(\C)C(OC(N)=O)C(OC)/C=C\C=C(/C)C(=O)NC(=CC1=O)C2=O` (stereo partly drawn), the GI50 was 4.54 µM (inactive) in the test with UO-31; 20.4 µM (inactive) in the test with NCI-H226; 1.91 µM (inactive) with HCC 2998; 4.06 µM (inactive) with PC-3; 9.06 µM (inactive) with SK-MEL-2; 1.05 µM (active) in the test with 786-0. Moreover, the GI50 was 1.43 µM (inactive) with UACC-257; 8.57 µM (inactive) in the test on OVCAR-5; 7.57 µM (inactive) with SNB-19; 20.8 µM (inactive) in the test with SNB-75; 0.483 µM (active) with MOLT-4; 12.8 µM (inactive) in the test on SK-OV-3. In addition, the GI50 was 0.528 µM (active) with MCF7; 4.88 µM (inactive) with M14; 2.43 µM in the test on HCT-15; 0.486 µM (active) in the test on T47D; 3.73 µM (inactive) in the test on Hs-578T; 1.29 µM (inactive) with IGROV-1.

For `CCC1CN2CCc3c([nH]c4ccccc34)[C@@](C(=O)OC)(c3cc4c(cc3OC)N(C)C3C(O)(C(=O)OC)C(C(=O)OC)C5(CC)C=CCN6CCC43C65)C[C@@H](C2)[C@@H]1C(C)(C)C` (stereo partly drawn), the GI50 with UO-31 was 1.47 µM (inactive); in the test on NCI-H226 it was 0.267 µM (active); in the test with HCC 2998, 0.373 µM (active); with PC-3 it was 0.286 µM (active); in the test with SK-MEL-2, 0.41 µM (active); in the test on 786-0, 0.439 µM (active). Also, the GI50 in the test on UACC-257 was 0.514 µM (active); in the test on OVCAR-5 it was 2.68 µM (inactive); with SNB-19 it was 0.337 µM (active); with SNB-75 it was 0.337 µM (active); in the test with MOLT-4, 0.479 µM (active); in the test with SK-OV-3 it was 1 µM (active). Besides, the GI50 was 0.461 µM (active) in the test with MCF7; 0.401 µM (active) in the test on M14; 0.396 µM with HCT-15; 0.687 µM (active) in the test on T47D; 0.463 µM (active) with Hs-578T; 0.668 µM (active) with IGROV-1.
